Values of other authors as cited in patent US8470873B2, “Vitamin E succinate stabilized pharmaceutical compositions, methods for the preparation and the use thereof” (Mast Therapeutics, Inc., priority 2006, dated 2013).

What was measured:
[1] = hydrolysis

In the case of `CC(=O)O[C@@]12CO[C@@H]1C[C@H](O)[C@@]1(C)C(=O)[C@H](O)C3=C(C)[C@@H](OC(=O)[C@H](O)[C@@H](NC(=O)OC(C)(C)C)c4ccccc4)C[C@@](O)([C@@H](OC(=O)c4ccccc4)[C@H]21)C3(C)C` [Docetaxel, (2R,3S)-N-carboxy-3-phenylisoserine,N-tert-butyl ester, 13-ester with 5β-20-epoxy-1,2α-,4,7β,10β,13α-hexahydroxytax-11-en-9-one 4-acetate 2-benzoate, trihydrate], the “stability in the presence of water” value [1] is given as “very unstable”.

For `CC(=O)O[C@H]1C(=O)[C@@]2(C)[C@H]([C@H](OC(=O)c3ccccc3)[C@]3(O)C[C@H](OC(=O)[C@H](O)[C@@H](NC(=O)c4ccccc4)c4ccccc4)C(C)=C1C3(C)C)[C@]1(OC(C)=O)CO[C@@H]1C[C@@H]2O` [paclitaxel], the solubility in water is listed as “insoluble”.
